pEC50, pIC50: −log10 of the molar value. Values after ≈ are worked out from the molar mass of the structure shown. Active and inactive are the calls of the source. No cut-off for these calls is given here.
How the values were obtained:
[1] = (§1) Antiproliferative activity against human MHHCALL4 cells harboring CRLF2-rearranged JAK2 mutation assessed as reduction in cell viability measured after 3 days by CellTiter-Glo assay; type: functional, cell-based; settings: MHHCALL4, 72 h
[2] = (§2) Antiproliferative activity against human MB004 cells harboring TP53 mutation at codon 274 GTT-TGT assessed as reduction in cell viability measured after 3 days by CellTiter-Glo assay; type: functional, cell-based; settings: MB004, 72 h
[3] = (§3) Antiproliferative activity against human HD-MB03 cells assessed as reduction in cell viability measured after 3 days by CellTiter-Glo assay; type: functional, cell-based; settings: HD-MB03, 72 h
MV4-11 [4] = test: Induction of apoptosis in human MV4-11 cells assessed as caspase activation at 10 to 100 nM measured after 24 hrs by luminescent Caspase-Glo assay; type: functional, cell-based; settings: dose 10-100 nM
Homo sapiens = organism: Homo sapiens; test: Induction of His-tagged CRBN/DDB1/biotin-tagged IKZF1 (unknown origin) ternary complex formation incubated for 90 mins by AlphaScreen assay
[5] = Aqueous solubility of the compound incubated for 18 hrs at pH 7.4 by UV spectrum based analysis; type: physicochemical
[6] = Apparent permeability of the compound in dog MDCKII-MDR1 cells measured after 1 hr; type: ADME, cell-based, Canis lupus familiaris; settings: mdck-mdr1, 1 h
MV4-11 [7] = test: Antiproliferative activity against human MV4-11 cells assessed as reduction in cell viability measured after 3 days in presence of CRBN ligand, lenalidomide by CellTiter-Glo assay; type: functional, cell-based; settings: time 3.0 day
MV4-11 [8] = test: Antiproliferative activity against CRBN knock-out human MV4-11 cells assessed as reduction in cell viability measured after 3 days by CellTiter-Glo assay; type: functional, cell-based; settings: time 3.0 day
MV4-11 [9] = test: Antiproliferative activity against human MV4-11 cells transfected with FLAG-tagged GSPT1 G575N mutant assessed as reduction in cell viability measured after 3 days by CellTiter-Glo assay; type: functional, cell-based; settings: time 3.0 day
MV4-11 [10] = test: PROTAC activity at CRBN/FLAG-tagged GSPT1 G575N mutant transfected in human MV4-11 cells assessed as induction of GSPT1 mutant degradation at 1 to 10 uM measured after 24 hrs by immunoblot analysis; type: cell-based; settings: dose 1-10 µM
MV4-11 [11] = type: cell-based; settings: Homo sapiens, dose 1-10 µM, time 24.0 hrs
[12] = Cytotoxicity against human PBMC assessed as reduction in cell viability
[13] = target: T1, Protein cereblon/Eukaryotic peptide chain release factor GTP-binding subunit ERF3A (Homo sapiens, UniProt Q96SW2+P15170); settings: MV4-11, dose 100.0 nM, time 24.0 hrs
Target sequence in this assay (P15170 whole entry, looked up): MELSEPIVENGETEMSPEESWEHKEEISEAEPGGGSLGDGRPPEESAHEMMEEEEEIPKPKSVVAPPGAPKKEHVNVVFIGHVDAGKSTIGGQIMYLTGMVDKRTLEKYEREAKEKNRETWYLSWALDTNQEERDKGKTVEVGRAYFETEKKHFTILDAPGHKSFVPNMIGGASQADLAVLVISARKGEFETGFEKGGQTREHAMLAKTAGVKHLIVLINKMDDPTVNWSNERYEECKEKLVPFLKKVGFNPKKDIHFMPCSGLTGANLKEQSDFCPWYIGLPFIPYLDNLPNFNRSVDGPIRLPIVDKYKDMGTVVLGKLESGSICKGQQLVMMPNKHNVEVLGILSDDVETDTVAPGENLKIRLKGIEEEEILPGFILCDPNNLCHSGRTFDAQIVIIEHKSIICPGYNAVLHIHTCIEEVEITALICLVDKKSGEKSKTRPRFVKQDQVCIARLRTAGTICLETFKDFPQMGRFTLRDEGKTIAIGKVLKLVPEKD
Target sequence in this assay (Q96SW2 whole entry, looked up): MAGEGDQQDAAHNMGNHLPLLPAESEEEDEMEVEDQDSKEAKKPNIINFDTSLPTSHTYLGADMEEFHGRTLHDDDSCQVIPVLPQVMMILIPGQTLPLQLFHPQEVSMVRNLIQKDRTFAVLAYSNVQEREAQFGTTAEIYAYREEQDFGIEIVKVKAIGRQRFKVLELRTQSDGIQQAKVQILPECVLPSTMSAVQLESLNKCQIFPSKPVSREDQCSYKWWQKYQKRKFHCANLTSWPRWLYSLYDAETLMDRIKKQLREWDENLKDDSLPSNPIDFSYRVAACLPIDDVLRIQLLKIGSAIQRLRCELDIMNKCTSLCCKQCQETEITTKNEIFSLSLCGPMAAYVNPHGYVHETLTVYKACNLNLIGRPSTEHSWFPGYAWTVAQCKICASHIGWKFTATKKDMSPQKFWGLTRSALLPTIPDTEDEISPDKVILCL

MV4-11 [14] = test: Antiproliferative activity against human MV4-11 cells assessed as reduction in cell viability measured after 3 days by CellTiter-Glo assay; type: functional, cell-based; settings: for pEC50: MV4-11, 72 h
[15] = target: Protein cereblon/Eukaryotic peptide chain release factor GTP-binding subunit ERF3A (Homo sapiens, UniProt P15170+Q96SW2); test: PROTAC activity at human CRBN/HiBiT-fused GSPT1 transfected in HEK293T cells assessed as induction of GSPT1 degradation measured after 4 hrs by Nano-Glo HiBiT lytic assay; type: cell-based
[16] = target: Protein cereblon/DNA damage-binding protein 1 (Homo sapiens, UniProt Q96SW2)
MV4-11 [17] = test: Induction of apoptosis in human MV4-11 cells assessed as caspase activation at 10 to 100 nM measured after 8 hrs by luminescent Caspase-Glo assay; type: functional, cell-based; settings: dose 10-100 nM
[18] = Half life in CD-1 mouse liver microsomes measured upto 240 mins in presence of NADPH regenerating system by UHPLC-MS/MS analysis; type: ADME, Microsome; settings: 4 h
[19] = Half life in human liver microsomes measured upto 240 mins in presence of NADPH regenerating system by UHPLC-MS/MS analysis; type: ADME, Microsome; settings: 4 h
[20] = Protein binding in mouse plasma at 10 uM incubated for 4 hrs by UHPLC-MS/MS analysis; type: ADME, cell-free
[21] = Protein binding in human plasma at 10 uM incubated for 4 hrs by UHPLC-MS/MS analysis; type: ADME, cell-free
MV4-11 [22] = test: PROTAC activity at CRBN/GSPT2 in human MV4-11 cells assessed as induction of GSPT2 degradation at 1 uM measured after 4 hrs by tandem mass tag mass spectrometry analysis; type: cell-based
MV4-11 [23] = test: PROTAC activity at CRBN/SERPINF1 in human MV4-11 cells assessed as induction of SERPINF1degradation at 1 uM measured after 4 hrs by tandem mass tag mass spectrometry analysis; type: cell-based
[24] = target: T1, Protein cereblon/Eukaryotic peptide chain release factor GTP-binding subunit ERF3A; settings: mhhcall4
Target sequence in this assay (Q96SW2 whole entry): as the sequence (Q96SW2 whole entry, looked up) above
Target sequence in this assay (P15170 whole entry): as the sequence (P15170 whole entry, looked up) above

[25] = target: T1, Protein cereblon/Eukaryotic peptide chain release factor GTP-binding subunit ERF3A; settings: MV4-11, dose 100.0 nM, time 4.0 hrs
Target sequence in this assay (P15170 whole entry, looked up): as above
Target sequence in this assay (Q96SW2 whole entry, looked up): as the sequence (Q96SW2 whole entry, looked up) above

MHHCALL4 = test: as §1; type: functional, cell-based; settings: time 3.0 day
MB004 = test: as §2; type: functional, cell-based; settings: time 3.0 day
HD-MB03 = test: as §3; type: functional, cell-based; settings: time 3.0 day

Protein cereblon/DNA damage-binding protein 1, sequence (Q96SW2 whole entry): as the sequence (Q96SW2 whole entry, looked up) above
Protein cereblon/DNA damage-binding protein 1, sequence (Q16531 whole entry, further chain): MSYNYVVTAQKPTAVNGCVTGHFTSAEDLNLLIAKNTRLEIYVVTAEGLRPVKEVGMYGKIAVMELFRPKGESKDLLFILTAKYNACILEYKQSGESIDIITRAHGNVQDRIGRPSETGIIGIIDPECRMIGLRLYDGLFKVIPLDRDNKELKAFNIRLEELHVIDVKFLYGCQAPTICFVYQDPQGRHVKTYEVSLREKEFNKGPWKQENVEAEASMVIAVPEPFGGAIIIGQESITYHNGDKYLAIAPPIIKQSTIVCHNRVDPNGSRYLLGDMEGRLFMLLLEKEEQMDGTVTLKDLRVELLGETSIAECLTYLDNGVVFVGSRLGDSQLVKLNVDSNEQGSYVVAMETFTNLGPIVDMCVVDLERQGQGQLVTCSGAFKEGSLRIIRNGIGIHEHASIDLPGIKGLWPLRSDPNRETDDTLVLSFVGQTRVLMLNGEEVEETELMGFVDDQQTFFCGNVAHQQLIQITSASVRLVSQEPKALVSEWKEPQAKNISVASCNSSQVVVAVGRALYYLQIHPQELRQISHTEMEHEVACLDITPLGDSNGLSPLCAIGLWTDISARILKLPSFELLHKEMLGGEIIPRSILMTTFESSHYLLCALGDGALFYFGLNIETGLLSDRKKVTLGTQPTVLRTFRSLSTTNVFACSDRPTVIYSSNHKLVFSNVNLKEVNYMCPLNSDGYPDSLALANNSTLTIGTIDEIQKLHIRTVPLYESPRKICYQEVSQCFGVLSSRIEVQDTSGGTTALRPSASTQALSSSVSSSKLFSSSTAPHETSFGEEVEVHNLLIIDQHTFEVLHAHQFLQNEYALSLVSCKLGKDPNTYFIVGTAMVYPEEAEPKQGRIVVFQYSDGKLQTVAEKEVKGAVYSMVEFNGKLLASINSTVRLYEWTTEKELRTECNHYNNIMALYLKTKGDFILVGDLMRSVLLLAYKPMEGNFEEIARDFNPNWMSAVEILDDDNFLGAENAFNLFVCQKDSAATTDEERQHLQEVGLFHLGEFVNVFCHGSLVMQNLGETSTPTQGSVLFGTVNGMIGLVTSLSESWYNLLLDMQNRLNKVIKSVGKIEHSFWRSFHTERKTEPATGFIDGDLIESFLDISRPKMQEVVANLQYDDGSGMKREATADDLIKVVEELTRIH
Protein cereblon/Eukaryotic peptide chain release factor GTP-binding subunit ERF3A (Homo sapiens, UniProt P15170+Q96SW2), sequence (Q96SW2 whole entry, the tested form may be a part): as the sequence (Q96SW2 whole entry, looked up) above
Protein cereblon/Eukaryotic peptide chain release factor GTP-binding subunit ERF3A (Homo sapiens, UniProt P15170+Q96SW2), sequence (P15170 whole entry, the tested form may be a part): as the sequence (P15170 whole entry, looked up) above

SMILES | solubility at 18 h [5] [µM] | Papp [6] [×10⁻⁶ cm/s] | Activity [12] | pEC50 (MV4-11 [14]) | pEC50 [15] | pIC50 [16] | further results
Cc1c(Cl)cccc1S(=O)(=O)Nc1ccc2c(c1)C(=O)N(C1CCC(=O)NC1=O)C2=O (stereo not given) | 64 (≈ 29.6 µg/mL) | 3.6 | Toxic |  |  |  | pEC50 [1]: 8.36; pEC50 [2]: 5.96; pEC50 [3]: < 5.10; Activity (MV4-11 [4]): Active; Activity (Homo sapiens): inactive; Activity (MV4-11 [7]): inactive; Activity (MV4-11 [8]): inactive; Activity (MV4-11 [9]): inactive; Activity (MV4-11 [10]): inactive; Activity (MV4-11 [11]): inactive; Emax [13]: 90%
O=C1CCC(N2C(=O)c3ccc(NS(=O)(=O)c4ccccc4C(F)(F)F)cc3C2=O)C(=O)N1 (stereo not given) | 66 (≈ 31.8 µg/mL) | 1.4 |  | 7.05 | 7.28 | 6.47 | 
O=C1CCC(N2C(=O)c3ccc(NS(=O)(=O)c4cccc(Cl)c4)cc3C2=O)C(=O)N1 (stereo not given) | 74 (≈ 33.1 µg/mL) | 1.7 |  | < 5.00 | < 5.00 | 7.64 | 
Cc1ccccc1S(=O)(=O)Nc1ccc2c(c1)C(=O)N(C1CCC(=O)NC1=O)C2=O (stereo not given) | 84 (≈ 35.9 µg/mL) | 6.8 |  | 5.13 | 5.03 | 7.96 | 
O=C1CCC(N2C(=O)c3ccc(NS(=O)(=O)c4ccccc4)cc3C2=O)C(=O)N1 (stereo not given) | 71 (≈ 29.4 µg/mL) | 3.6 |  | < 5.00 | < 5.00 | 8.52 | 
COc1ccccc1S(=O)(=O)Nc1ccc2c(c1)C(=O)N(C1CCC(=O)NC1=O)C2=O (stereo not given) | 85 (≈ 37.7 µg/mL) | 0.6 |  | < 5.00 | < 5.00 | 6.21 | 
O=C1CCC(N2Cc3cc(CNC(=O)C(F)(F)c4ccc(Cl)cc4)ccc3C2=O)C(=O)N1 (stereo not given) | 77 (≈ 35.6 µg/mL) | 4.9 | Toxic | 7.21 |  |  | 
O=C1CCC(N2C(=O)c3ccc(NS(=O)(=O)c4ccc(OC(F)(F)F)cc4)cc3C2=O)C(=O)N1 (stereo not given) | 76 (≈ 37.8 µg/mL) | 1.1 |  | < 5.00 | < 5.00 | 8.05 | 
O=C1CCC(N2C(=O)c3ccc(NS(=O)(=O)c4ccccc4OC(F)(F)F)cc3C2=O)C(=O)N1 (stereo not given) | 67 (≈ 33.3 µg/mL) | 2.3 | Toxic | 8.82 |  |  | pEC50 [1]: 9.40; pEC50 [2]: 6.47; pEC50 [3]: 5.45; Activity (MV4-11 [17]): Active; Activity (Homo sapiens): inactive; t1/2 [18]: 4.7 h; t1/2 [19]: 5.7 h; PPB [20]: 99.3%; PPB [21]: 99.1%; Activity (MV4-11 [7]): inactive; Activity (MV4-11 [8]): inactive; Activity (MV4-11 [9]): inactive; Activity (MV4-11 [10]): inactive; Activity (MV4-11 [11]): inactive; Activity (MV4-11 [22]): Active; Activity (MV4-11 [23]): Active; DC50 [24]: Not Active; Emax [25]: 90%
Cc1ccc(NC(=O)NCc2ccc3c(c2)CN(C2CCC(=O)NC2=O)C3=O)cc1Cl (stereo not given) |  |  | Toxic |  |  | 7.74 | Activity (MV4-11 [14]; time 3.0 day): Active; Activity (MHHCALL4): Active; Activity (MB004): Active; Activity (HD-MB03): Active
Cc1ccc(S(=O)(=O)Nc2ccc3c(c2)C(=O)N(C2CCC(=O)NC2=O)C3=O)cc1Cl (stereo not given) |  | 4.6 |  | < 5.00 | < 5.00 | 9.00 | 
O=C1CCC(N2C(=O)c3ccc(NS(=O)(=O)c4cccc(OC(F)(F)F)c4)cc3C2=O)C(=O)N1 (stereo not given) | 64 (≈ 31.8 µg/mL) | 4 |  | < 5.00 | < 5.00 | 8.00 | 

From ChEMBL document CHEMBL5036322 (J Med Chem, 2021)
